In patent US10752587B2, “Homobispiperidinyl derivatives as liver X receptor beta agonists, compositions and their use” (Merck Sharp & Dohme Corp., priority 2015, dated 2020):
pEC50: −log10 of the molar value.

What was measured:
[1] = target: T1, glutathione-S-transferase (GST) tagged LXRalpha LBD (ligand binding domain) (Homo sapiens, UniProt Q13133); assay: LanthaScreen TR-FRET Liver X Receptor Coactivator Assay, co-activator recruitment to LXRalpha LBD; type: biochemical; details: for Emax: read-out: LXR alpha Activity @ max dose (%); for pEC50 / LXR alpha IP (nM): potency (Inflection Point, IP), co-activator recruitment to LXRalpha LBD, in relation to T0901317; for pEC50: read-out: LXR alpha IP
T1 construct: purchased Invitrogen pv4655
T1 sequence (Q13133 209-447 limits assumed): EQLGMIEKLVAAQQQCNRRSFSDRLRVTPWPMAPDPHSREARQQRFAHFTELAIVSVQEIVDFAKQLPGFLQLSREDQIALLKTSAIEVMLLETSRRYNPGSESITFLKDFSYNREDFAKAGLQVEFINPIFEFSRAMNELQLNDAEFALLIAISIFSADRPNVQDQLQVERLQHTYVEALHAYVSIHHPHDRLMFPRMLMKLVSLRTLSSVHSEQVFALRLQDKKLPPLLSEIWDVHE
Method in brief: (§1)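 TR-FRET coactivator recruitment; compound + LBD, then fluorescein-coactivator peptide/Tb-anti-GST Ab mix; RT incubation; IP and Emax vs T0901317.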

[2] = target: T2, glutathione-S-transferase (GST) tagged LXRbeta LBD (ligand binding domain) (Homo sapiens, UniProt P55055); assay: LanthaScreen TR-FRET Liver X Receptor Coactivator Assay, co-activator recruitment to LXRbeta LBD; type: biochemical; details: for Emax: read-out: LXR beta Activity @ max dose (%); for pEC50: potency (Inflection Point, IP), co-activator recruitment to LXRbeta LBD, in relation to T0901317, read-out: LXR beta IP
T2 construct: purchased Invitrogen pv4658.pps
T2 sequence (P55055 222-460 limits assumed): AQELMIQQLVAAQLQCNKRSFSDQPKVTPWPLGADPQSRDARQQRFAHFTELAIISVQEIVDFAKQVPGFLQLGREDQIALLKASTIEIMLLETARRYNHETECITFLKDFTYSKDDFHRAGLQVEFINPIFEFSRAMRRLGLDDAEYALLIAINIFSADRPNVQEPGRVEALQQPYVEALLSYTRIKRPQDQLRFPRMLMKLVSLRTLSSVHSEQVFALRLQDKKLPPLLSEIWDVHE
Method in brief: as §1

[3] = efficacy at max dose, in relation to reference dual agonist T0901317

SMILES	Emax [1, 3]	pEC50 [1]	Emax [2, 3]	pEC50 [2]	LXR alpha Activity @ max dose (%) [1, 3]	LXR alpha IP (nM) [1]	LXR beta Activity @ max dose (%) [2, 3]
CN(C)C(=O)c1ccc(N2CCC(CC3CCN(C(=O)[C@](O)(c4cccc(Br)c4)C(F)(F)F)CC3)CC2)nc1Cl [Example 7-67, 6-[4-({1-[(2R)-2-(3-bromophenyl)-3,3,3-trifluoro-2-hydroxypropanoyl]piperidin-4-yl}methyl)piperidin-1-yl]-2-chloro-N,N-dimethylpyridine-3-carboxamide]	0%	6.96	73%	8.40			
CN(C)C(=O)c1ccc(N2CCC(CC3CCN(C(=O)[C@@](O)(c4cccc(Br)c4)C(F)(F)F)CC3)CC2)nc1Cl [Example 7-68, 6-[4-({1-[(2S)-2-(3-bromophenyl)-3,3,3-trifluoro-2-hydroxypropanoyl]piperidin-4-yl}methyl)piperidin-1-yl]-2-chloro-N,N-dimethylpyridine-3-carboxamide]	12%	5.99	118%	7.19			
CN(C)C(=O)c1ccc(N2CCC(CC3CCN(C(=O)[C@](O)(c4cccc(Cl)c4)C(F)(F)F)CC3)CC2)nc1Cl [Example 7-69, 2-chloro-6-[4-({1-[(2R)-2-(3-chlorophenyl)-3,3,3-trifluoro-2-hydroxypropanoyl]piperidin-4-yl}methyl)piperidin-1-yl]-N,N-dimethylpyridine-3-carboxamide]	30%	7.15	82%	8.52			
CN(C)C(=O)c1ccc(N2CCC(CC3CCN(C(=O)[C@@](O)(c4cccc(Cl)c4)C(F)(F)F)CC3)CC2)nc1Cl [Example 7-70, 2-chloro-6-[4-({1-[(2S)-2-(3-chlorophenyl)-3,3,3-trifluoro-2-hydroxypropanoyl]piperidin-4-yl}methyl)piperidin-1-yl]-N,N-dimethyl-pyridine-3-carboxamide]	34%	5.90	110%	7.60			
CN(C)C(=O)c1ccc(N2CCC(CC3CCN(C(=O)[C@@](O)(c4ccccc4F)C(F)(F)F)CC3)CC2)nc1Cl [Example 7-71, 2-chloro-N,N-dimethyl-6-[4-({1-[(2S)-3,3,3-trifluoro-2-(2-fluorophenyl)-2-hydroxypropanoyl]piperidin-4-yl}methyl)piperidin-1-yl]pyridine-3-carboxamide]	45%	5.69	122%	7.26			
CN(C)C(=O)c1ccc(N2CCC(CC3CCN(C(=O)[C@](O)(c4cccc(F)c4)C(F)(F)F)CC3)CC2)nc1Cl [Example 7-72, 2-chloro-N,N-dimethyl-6-[4-({1-[(2R)-3,3,3-trifluoro-2-(3-fluorophenyl)-2-hydroxypropanoyl]piperidin-4-yl}methyl)piperidin-1-yl]pyridine-3-carboxamide]	50%	7.06	91%	8.52			
CN(C)C(=O)c1ccc(N2CCC(CC3CCN(C(=O)[C@@](O)(c4cccc(F)c4)C(F)(F)F)CC3)CC2)nc1Cl [Example 7-73, 2-chloro-N,N-dimethyl-6-[4-({1-[(2S)-3,3,3-trifluoro-2-(3-fluorophenyl)-2-hydroxypropanoyl]piperidin-4-yl}methyl)piperidin-1-yl]pyridine-3-carboxamide]	47%	6.04	128%	7.33			
COc1cccc([C@@](O)(C(=O)N2CCC(CC3CCN(c4ccc(C(=O)N(C)C)c(Cl)n4)CC3)CC2)C(F)(F)F)c1 [Example 7-74, 2-chloro-N,N-dimethyl-6-[4-({1-[(2R)-3,3,3-trifluoro-2-hydroxy-2-(3-methoxyphenyl)propanoyl]piperidin-4-yl}methyl)piperidin-1-yl] pyridine-3-carboxamide]				8.15	9%	NO IP	61%
CN(C)C(=O)c1ccc(N2CCC(CC3CCN(C(=O)[C@](O)(c4cccc(OC(F)(F)F)c4)C(F)(F)F)CC3)CC2)nc1Cl [Example 7-75, 2-chloro-N,N-dimethyl-6-{4-[(1-{(2R)-3,3,3-trifluoro-2-hydroxy-2-[3-(trifluoromethoxy)phenyl]propanoyl}piperidin-4-yl)methyl]piperidin-1-yl}pyridine-3-carboxamide]	13%		67%	8.00		NO IP	
CC(C)Oc1cccc(C(O)(C(=O)N2CCC(CC3CCN(c4ccc(C(=O)N(C)C)c(Cl)n4)CC3)CC2)C(F)(F)F)c1 (stereo not drawn) [Example 7-76, 2-chloro-N,N-dimethyl-6-{4-[(1-{3,3,3-trifluoro-2-hydroxy-2-[3-(1-methylethoxy)phenyl]propanoyl}piperidin-4-yl)methyl]piperidin-1-yl}pyridine-3-carboxamide]	10%		56%	8.00		NO IP	
CCOc1cccc(C(O)(C(=O)N2CCC(CC3CCN(c4ccc(C(=O)N(C)C)c(Cl)n4)CC3)CC2)C(F)(F)F)c1 (stereo not drawn) [Example 7-77, 2-chloro-6-[4-({1-[2-(3-ethoxyphenyl)-3,3,3-trifluoro-2-hydroxypropanoyl]piperidin-4-yl}methyl)piperidin-1-yl]-N,N-dimethylpyridine-3-carboxamide]	6%		53%	8.00		NO IP	
CN(C)C(=O)c1ccc(N2CCC(CC3CCN(C(=O)C(O)(c4cccc(C#N)c4)C(F)(F)F)CC3)CC2)nc1Cl (stereo not drawn) [Example 7-78, 2-chloro-6-[4-({1-[2-(3-cyanophenyl)-3,3,3-trifluoro-2-hydroxypropanoyl]piperidin-4-yl}methyl)piperidin-1-yl]-N,N-dimethylpyridine-3-carboxamide]	31%	6.53	95%	8.22			
COc1cccc([C@@](O)(C(=O)N2CCC(CC3CCN(c4ccc(C(=O)N(C)C)c(Cl)n4)CC3)CC2)C(F)(F)C(F)(F)F)c1 [Example 7-79, 2-chloro-N,N-dimethyl-6-[4-({1-[(2R)-3,3,4,4,4-pentafluoro-2-hydroxy-2-(3-methoxyphenyl)butanoyl]piperidin-4-yl}methyl)piperidin-1-yl]pyridine-3-carboxamide]	22%	6.37	86%	8.05			
CN(C)C(=O)c1ccc(N2CCC(CC3CCN(C(=O)[C@](O)(c4ccccc4F)C(F)(F)F)CC3)CC2)nc1Cl [Example 7-80, 2-chloro-N,N-dimethyl-6-[4-({1-[(2R)-3,3,3-trifluoro-2-(2-fluorophenyl)-2-hydroxypropanoyl]piperidin-4-yl}methyl)piperidin-1-yl]pyridine-3-carboxamide]	27%	6.37	85%	7.92			
CN(C)C(=O)c1ccc(N2CCC(CC3CCN(C(=O)C(F)(F)c4cccc(Cl)c4)CC3)CC2)nc1Cl [Example 7-81, 2-chloro-6-[4-({1-[(3-chlorophenyl) (difluoro)acetyl]piperidin-4-yl}methyl)piperidin-1-yl]-N,N-dimethylpyridine-3-carboxamide]	19%		51%	6.69		NO IP	
CN(C)C(=O)c1ccc(N2CCC(CC3CCN(C(=O)C(O)(c4cc(F)cc(F)c4)C(F)(F)F)CC3)CC2)nc1Cl (stereo not drawn) [Example 7-82, 2-chloro-6-[4-({1-[2-(3,5-difluorophenyl)-3,3,3-trifluoro-2-hydroxypropanoyl]piperidin-4-yl}methyl)piperidin-1-yl]-N,N-dimethylpyridine-3-carboxamide]	53%	6.97	111%	8.15			
CN(C)C(=O)c1ccc(N2CCC(CC3CCN(C(=O)C(O)(c4cc(Cl)cc(Cl)c4)C(F)(F)F)CC3)CC2)nc1Cl (stereo not drawn) [Example 7-83, 2-chloro-6-[4-({1-[2-(3,5-dichlorophenyl)-3,3,3-trifluoro-2-hydroxypropanoyl]piperidin-4-yl}methyl)piperidin-1-yl]-N,N-dimethylpyridine-3-carboxamide]	13%		53%	8.10		NO IP	
CC(C)c1cccc(C(O)(C(=O)N2CCC(CC3CCN(c4ccc(C(=O)N(C)C)c(Cl)n4)CC3)CC2)C(F)(F)F)c1 (stereo not drawn) [Example 7-84, 2-chloro-N,N-dimethyl-6-{4-[(1-{3,3,3-trifluoro-2-hydroxy-2-[3-(1-methylethyl)phenyl]propanoyl}piperidin-4-yl)methyl]piperidin-1-yl}pyridine-3-carboxamide]	11%		54%	7.89		NO IP	
